Where “and” joins values, the source holds several entries; their conditions need not be identical. Identical values can stand only once. Toxic doses and inconclusive results are not listed. No stated cut-off is given here; in the data, active means T/C of 150% or more; inactive means T/C below 125%.
System: L1210 leukemia ip in BDF1 mice, survival T/C
Assay: NCI In Vivo Anticancer Drug Screen. Data for tumor model L1210 Leukemia (intraperitoneal) in B6D2F1 (BDF1) mice
Details: endpoint: mean survival time, higher = longer survival
Outline: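 Survival endpoint. Drug-treated group vs vehicle group, expressed as T divided by C. Tumor passaged by transplantation.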

[1] = dose: 100.0 mg/kg/injection, schedule: Q01DX001 (ip), vehicle: Klucel (hydroxypropylcellulose) (HPC)
[2] = dose: 100.0 mg/kg/injection, schedule: Q01DX009 (ip), vehicle: Klucel (hydroxypropylcellulose) (HPC)
[3] = dose: 200.0 mg/kg/injection, schedule: Q01DX001 (ip), vehicle: Klucel (hydroxypropylcellulose) (HPC)
[4] = dose: 200.0 mg/kg/injection, schedule: Q01DX009 (ip), vehicle: Klucel (hydroxypropylcellulose) (HPC)
[5] = dose: 400.0 mg/kg/injection, schedule: Q01DX001 (ip), vehicle: Klucel (hydroxypropylcellulose) (HPC)
[6] = dose: 400.0 mg/kg/injection, schedule: Q01DX009 (ip), vehicle: Klucel (hydroxypropylcellulose) (HPC)
[7] = dose: 100.0 mg/kg/injection, schedule: Q01DX009 (ip), vehicle: saline with Tween-80
[8] = dose: 100.0 mg/kg/injection, schedule: Q04DX003 (ip), vehicle: Klucel (hydroxypropylcellulose) (HPC)
[9] = dose: 100.0 mg/kg/injection, schedule: Q04DX003 (ip), vehicle: saline with Tween-80
[10] = dose: 200.0 mg/kg/injection, schedule: Q01DX009 (ip), vehicle: saline with Tween-80
[11] = dose: 200.0 mg/kg/injection, schedule: Q04DX003 (ip), vehicle: Klucel (hydroxypropylcellulose) (HPC)
[12] = dose: 200.0 mg/kg/injection, schedule: Q04DX003 (ip), vehicle: saline with Tween-80
[13] = dose: 400.0 mg/kg/injection, schedule: Q04DX003 (ip), vehicle: saline with Tween-80
[14] = dose: 100.0 mg/kg/injection, schedule: Q01DX001 (ip), vehicle: saline with Tween-80
[15] = dose: 200.0 mg/kg/injection, schedule: Q01DX001 (ip), vehicle: saline with Tween-80
[16] = dose: 400.0 mg/kg/injection, schedule: Q04DX003 (ip), vehicle: Klucel (hydroxypropylcellulose) (HPC)
[17] = dose: 100.0 mg/kg/injection, schedule: Q04DX003 (ip), vehicle: saline
[18] = dose: 200.0 mg/kg/injection, schedule: Q04DX003 (ip), vehicle: saline
[19] = dose: 50.0 mg/kg/injection, schedule: Q01DX009 (ip), vehicle: Klucel (hydroxypropylcellulose) (HPC)

Measured: T/C

CCSC(=S)n1c2ccccc2c2ccccc21
inactive: [1] 98 % of control | [2] 101 % of control | [3] 101 % of control | [4] 96 % of control | [5] 92 % of control | [6] 101 % of control

Nc1ccccc1C(=O)c1ccccc1
inactive: [1] 94 % of control | [7] 90 % of control | [8] 98 % of control | [9] 93 % of control | [3] 93 % of control | [10] 95 % of control | [11] 98 % of control | [12] 95 % of control | [13] 95 % of control

CC1(N(O)C(=O)NC2CCCCC2)CCCCC1
inactive: [14] 101 % of control | [15] 97 % of control

COc1ccc(OC)c(NC(=O)Nc2ccc(N(C)C)cc2)c1
inactive: [8] 93 % of control | [11] 97 % of control | [16] 95 % of control

c1ccc2cc(C3OCC4(CCCCC4)CO3)ccc2c1
inactive: [1] 96 % of control | [3] 100 % of control | [5] 100 % of control

C=NN=C(N)N
inactive: dose: 0.38 mg/kg/injection, schedule: Q01DX Z (ip), vehicle: saline 100 % of control | dose: 0.75 mg/kg/injection, schedule: Q01DX Z (ip), vehicle: saline 92 % of control | dose: 3.0 mg/kg/injection, schedule: Q01DX Z (ip), vehicle: saline 87 % of control | dose: 6.0 mg/kg/injection, schedule: Q01DX Z (ip), vehicle: saline 106 % of control | dose: 12.0 mg/kg/injection, schedule: Q01DX Z (ip), vehicle: saline 102 % of control | dose: 15.0 mg/kg/injection, schedule: Q01DX Z (ip), vehicle: saline 100 % of control | dose: 15.0 mg/kg/injection, schedule: Q01DX Z (oral), vehicle: saline 86 % of control | dose: 30.0 mg/kg/injection, schedule: Q01DX Z (ip), vehicle: saline 105 % of control | dose: 30.0 mg/kg/injection, schedule: Q01DX Z (oral), vehicle: saline 92 % of control

O=C(C[N+]12CCC(O)C1C(CO)CC2)c1ccc(Br)cc1 (stereo not given)
inactive: [17] 96 % of control | [18] 89 % of control

C#C/C=C/CC1OC(C(Br)CC)CC2OC1CC2Br (stereo not given)
inactive: dose: 75.0 mg/kg/injection, schedule: Q01DX001 (ip), vehicle: carboxymethylcellulose (CMC) 94 % of control | dose: 150.0 mg/kg/injection, schedule: Q01DX001 (ip), vehicle: carboxymethylcellulose (CMC) 96 % of control | dose: 300.0 mg/kg/injection, schedule: Q01DX001 (ip), vehicle: carboxymethylcellulose (CMC) 96 % of control

CC1CC(=O)Nc2ccccc2N1 (stereo not given)
inactive: [8] 97 % of control | [11] 100 % of control | [16] 103 % of control

O=C(O)c1nc(SCc2ccccc2)n(Cc2ccccc2)c1C(=O)O
inactive: dose: 100.0 mg/kg/injection, schedule: Q04DX002 (ip), vehicle: carboxymethylcellulose (CMC) 97 % of control and 89 % of control | dose: 100.0 mg/kg/injection, schedule: Q04DX003 (ip), vehicle: carboxymethylcellulose (CMC) 94 % of control and 97 % of control | dose: 200.0 mg/kg/injection, schedule: Q04DX002 (ip), vehicle: carboxymethylcellulose (CMC) 94 % of control and 115 % of control | dose: 200.0 mg/kg/injection, schedule: Q04DX003 (ip), vehicle: carboxymethylcellulose (CMC) 97 % of control and 98 % of control | dose: 400.0 mg/kg/injection, schedule: Q04DX002 (ip), vehicle: carboxymethylcellulose (CMC) 97 % of control and 87 % of control | dose: 400.0 mg/kg/injection, schedule: Q04DX003 (ip), vehicle: carboxymethylcellulose (CMC) 96 % of control

O=S(=O)(NC(=S)Nc1ccc(Cl)cc1)c1ccccc1
inactive: [9] 110 % of control | [12] 107 % of control | [13] 93 % of control

Clc1ccc(C2=CC(c3ccccc3)C3CC23)cc1 (stereo not given)
inactive: [14] 92 % of control | [15] 94 % of control | dose: 400.0 mg/kg/injection, schedule: Q01DX001 (ip), vehicle: saline with Tween-80 89 % of control

O=C(N/C=C/NC(=O)Oc1c(I)cc(I)cc1I)Oc1c(I)cc(I)cc1I
inactive: [2] 92 % of control | [4] 100 % of control | [6] 102 % of control

C[C@]12CC[C@@H]3c4cc([N+]#N)c([O-])cc4CC[C@H]3[C@@H]1CCC2=O
inactive: dose: 25.0 mg/kg/injection, schedule: Q01DX009 (ip), vehicle: Klucel (hydroxypropylcellulose) (HPC) 103 % of control | dose: 25.0 mg/kg/injection, schedule: Q04DX002 (ip), vehicle: Klucel (hydroxypropylcellulose) (HPC) 96 % of control | [19] 92 % of control | dose: 50.0 mg/kg/injection, schedule: Q04DX002 (ip), vehicle: Klucel (hydroxypropylcellulose) (HPC) 122 % of control | dose: 100.0 mg/kg/injection, schedule: Q04DX002 (ip), vehicle: Klucel (hydroxypropylcellulose) (HPC) 100 % of control and 101 % of control

COc1ccc(N)cc1OC
inactive: [17] 110 % of control | [18] 105 % of control | dose: 400.0 mg/kg/injection, schedule: Q04DX003 (ip), vehicle: saline 100 % of control

CC(=O)CCC1(C)OC(=O)C(C)C2C1CCC1(C)C(=O)CCC21 (stereo not given)
inactive: dose: 50.0 mg/kg/injection, schedule: Q01DX001 (sc), vehicle: steriod suspending solution 101 % of control | dose: 100.0 mg/kg/injection, schedule: Q01DX001 (sc), vehicle: steriod suspending solution 103 % of control | dose: 200.0 mg/kg/injection, schedule: Q01DX001 (sc), vehicle: steriod suspending solution 113 % of control | dose: 400.0 mg/kg/injection, schedule: Q01DX001 (sc), vehicle: steriod suspending solution 101 % of control

CCCCCCCC(=O)N1C2CN3C4=C(C(=O)C(N)=C(C)C4=O)C(COC(N)=O)C3(OC)C21 (stereo not given)
inactive: dose: 6.6 mg/kg/injection, schedule: Q01DX001 (ip), vehicle: acetone 115 % of control | dose: 9.9 mg/kg/injection, schedule: Q01DX001 (ip), vehicle: acetone 113 % of control

O=S(=O)(Nc1cc(S(=O)(=O)c2ccccc2)c(NS(=O)(=O)c2ccccc2)cc1Cl)c1ccccc1
inactive: [8] 88 % of control | [4] 92 % of control | [11] 88 % of control | [6] 87 % of control

O=c1cc(CO)[nH]c(=O)[nH]1
inactive: dose: 50.0 mg/kg/injection, schedule: Q01DX001 (ip), vehicle: saline 104 % of control | [19] 94 % of control | dose: 100.0 mg/kg/injection, schedule: Q01DX001 (ip), vehicle: saline 102 % of control | [2] 90 % of control | dose: 200.0 mg/kg/injection, schedule: Q01DX001 (ip), vehicle: saline 98 % of control | [4] 97 % of control | dose: 400.0 mg/kg/injection, schedule: Q01DX001 (ip), vehicle: saline 98 % of control

COc1ccc(OC)c2c1CCCC21OCCO1
inactive: dose: 50.0 mg/kg/injection, schedule: Q01DX009 (ip), vehicle: saline with Tween-80 105 % of control | [14] 95 % of control | [7] 102 % of control | [15] 96 % of control | [10] 100 % of control
